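Where inhibition never reached the appropriate level, the endpoint shown equals the highest concentration tested. Otherwise, values were interpolated linearly from a five-concentration, 48-hour dose response in 96-well plates. GI50 marks 50% less growth. TGI is the concentration that stops growth completely.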
How the values were obtained:
Test in all cases: NCI tumour cell line growth inhibition, 48 h
ACHN renal = system: ACHN renal
CAKI-1 renal = system: CAKI-1 renal
COLO 205 colon = system: COLO 205 colon
DU-145 prostate = system: DU-145 prostate
HCT-15 colon = system: HCT-15 colon
IGROV1 ovarian = system: IGROV1 ovarian
NCI-H522 lung = system: NCI-H522 lung
SF-295 CNS = system: SF-295 CNS
SNB-75 CNS = system: SNB-75 CNS
U251 CNS = system: U251 CNS

Structure (SMILES)	GI50 (ACHN renal)	TGI (ACHN renal)	GI50 (CAKI-1 renal)	TGI (CAKI-1 renal)	GI50 (COLO 205 colon)	TGI (COLO 205 colon)	GI50 (DU-145 prostate)	TGI (DU-145 prostate)	GI50 (HCT-15 colon)	TGI (HCT-15 colon)	GI50 (IGROV1 ovarian)	TGI (IGROV1 ovarian)	GI50 (NCI-H522 lung)	TGI (NCI-H522 lung)	GI50 (SF-295 CNS)	TGI (SF-295 CNS)	GI50 (SNB-75 CNS)	TGI (SNB-75 CNS)	GI50 (U251 CNS)	TGI (U251 CNS)
O=C(/C=C/c1ccccn1)c1ccc(OCc2nnc(-c3ccc(Cl)cc3)o2)cc1	1.66 µM	3.11 µM	1690 nM	3.24 µM	2230 nM	4.39 µM	1620 nM	3.02 µM	1620 nM	3.36 µM	1960 nM	3.62 µM	1890 nM	3.94 µM	1680 nM	3.33 µM	1460 nM	2.89 µM	1640 nM	3.05 µM
Cn1cc(C2=C(c3cn(CCCN)c4ccccc34)C(=O)NC2=O)c2ccccc21	5.53 µM	19.7 µM	4940 nM	> 15.9 µM	3270 nM	7.06 µM	6710 nM	18.7 µM	5140 nM	> 25 µM	8950 nM	> 19.7 µM	4120 nM	9.13 µM	7380 nM	> 25 µM	998 nM	5.35 µM	5010 nM	11.5 µM
COc1ccc(C2C(C#N)=C(N)Oc3c2sc2c(Br)cccc32)cc1 (stereo unspecified)	4.82 µM	19.3 µM	2470 nM	18.2 µM	2230 nM	5.39 µM	3270 nM	11.2 µM	930 nM	10.7 µM	2290 nM	20.9 µM	1750 nM	6.28 µM	907 nM	6.54 µM	1610 nM	8.06 µM	3250 nM	12.4 µM
Fc1ccc(-c2nn3ccccc3c2-c2ccncc2)cc1	12.1 µM	> 25 µM	11800 nM	> 25 µM	> 25000 nM	> 25 µM	> 25000 nM	> 25 µM	> 25000 nM	> 25 µM	12900 nM	> 25 µM	> 19800 nM	> 25 µM	> 25000 nM	> 25 µM	> 19700 nM	> 25 µM	> 25000 nM	> 25 µM
O=C1Cc2cc(CCn3cncn3)c(Cl)cc2N1	> 100 µM	> 100 µM	8330 nM	> 100 µM	23300 nM	> 100 µM	> 100000 nM	> 100 µM	9590 nM	> 100 µM	> 100000 nM	> 100 µM	5290 nM	> 100 µM	37100 nM	> 100 µM	13200 nM	> 100 µM	14500 nM	> 100 µM
CCC(=O)N1C/C(=C/c2ccc(Br)cc2)C(=O)/C(=C/c2ccc(Br)cc2)C1	0.694 µM	1.87 µM	1210 nM	–	611 nM	1.74 µM	1020 nM	3.22 µM	295 nM	1.31 µM	766 nM	2.27 µM	1400 nM	2.8 µM	1600 nM	4.3 µM	2340 nM	9.71 µM	240 nM	0.763 µM
Cn1c(=O)c(Oc2ccc(F)cc2F)cc2cnc(N[C@@H]3CCOC3)nc21	> 25 µM	> 25 µM	> 25000 nM	> 25 µM	> 25000 nM	> 25 µM	> 25000 nM	> 25 µM	> 25000 nM	> 25 µM	> 25000 nM	> 25 µM	> 25000 nM	> 25 µM	> 25000 nM	> 25 µM	> 25000 nM	> 25 µM	> 25000 nM	> 25 µM
COc1ccc2c(c1)CCc1cc(OC)ccc1/[N+]([O-])=[N+]\2[O-]	–	26.3 µM	–	34 µM	–	28.8 µM	–	38.1 µM	–	42.9 µM	–	35 µM	–	13.7 µM	–	37.6 µM	–	33.3 µM	–	38.6 µM
Oc1ccc(C(O)(c2ccccc2)c2ccccc2)c2ccccc12	–	3.73 µM	–	11.1 µM	–	18.6 µM	–	14 µM	–	2.9 µM	–	5.62 µM	–	7.17 µM	–	8.19 µM	–	18.2 µM	–	2.91 µM
OC1CCCC2CCC[N-]C12.OC1CCCC2CCC[N-]C12.[O]=[V][OH] (stereo unspecified)	8.21 µM	> 100 µM	21900 nM	85.3 µM	21100 nM	81.8 µM	19700 nM	> 100 µM	789 nM	12.5 µM	2370 nM	12.2 µM	743 nM	25.7 µM	9840 nM	76.9 µM	32800 nM	> 100 µM	1870 nM	5.72 µM
Clc1cccc(CNc2c3ccccc3nc3ccccc23)c1	1.59 µM	3.66 µM	1670 nM	4.82 µM	1540 nM	3.88 µM	2570 nM	7.17 µM	1880 nM	4.6 µM	1910 nM	5.46 µM	1880 nM	4.89 µM	1510 nM	3.08 µM	1760 nM	6.44 µM	2000 nM	4.56 µM
COc1ccc(-c2cc(-c3ccc(Cl)cc3)nc(NCCCCNc3ccnc4cc(Cl)ccc34)n2)cc1	12.6 µM	25.6 µM	10600 nM	22.6 µM	1860 nM	4.53 µM	2250 nM	4.79 µM	1690 nM	3.71 µM	1460 nM	3.12 µM	3650 nM	14.6 µM	8020 nM	24.2 µM	10000 nM	22.1 µM	11000 nM	23.8 µM
COc1ccc(C(=O)c2cc3c(N)c(C(=O)Nc4cccc(Br)c4C)sc3nc2C)cc1	0.0693 µM	> 100 µM	56.2 nM	> 100 µM	220 nM	0.987 µM	194 nM	–	48.9 nM	> 100 µM	86.9 nM	> 100 µM	41.8 nM	> 100 µM	40.5 nM	–	40.5 nM	> 100 µM	51.8 nM	> 100 µM
COc1ccc(-c2cn(-c3ccc(OC)c(OC)c3)c(=O)[nH]2)cc1	> 100 µM	> 100 µM	> 100000 nM	> 100 µM	> 100000 nM	> 100 µM	> 100000 nM	> 100 µM	> 100000 nM	> 100 µM	> 100000 nM	> 100 µM	> 100000 nM	> 100 µM	> 100000 nM	> 100 µM	24600 nM	98.7 µM	> 100000 nM	> 100 µM
O=C(NCCOCCOCCOCCNC(=O)c1cc2c(o1)C(=O)c1ccccc1C2=O)NC12CC3CC(CC(C3)C1)C2	1.75 µM	4.21 µM	2370 nM	11.5 µM	1960 nM	3.97 µM	628 nM	1.89 µM	1580 nM	3.68 µM	2110 nM	8.53 µM	1780 nM	4.95 µM	1650 nM	3.07 µM	2250 nM	4.06 µM	2040 nM	5 µM
Oc1[nH]c2ccccc2c1/C=c1/ccc2c(c1)N=C(c1ccc(C(F)(F)F)cc1)N=2	3.24 µM	17.4 µM	3110 nM	13.6 µM	9890 nM	22.1 µM	4110 nM	16 µM	4090 nM	20.3 µM	3010 nM	13.3 µM	1970 nM	13.5 µM	2700 nM	12.2 µM	2790 nM	12.9 µM	2830 nM	12.8 µM
COc1cc(-c2nc3ccccc3o2)cc(CN2CCCCC2)c1O	8.96 µM	83.8 µM	14300 nM	> 100 µM	2380 nM	4.6 µM	1820 nM	3.33 µM	1050 nM	26 µM	14000 nM	> 100 µM	3260 nM	14.2 µM	1850 nM	6.6 µM	2300 nM	4.76 µM	1840 nM	9.54 µM
COc1ccc2c(O)c(/C=C3\N=Nc4ncccc43)oc2c1C[C@@H]1CCNC[C@H]1F	0.51 µM	2.83 µM	848 nM	6.47 µM	323 nM	1.43 µM	809 nM	4.19 µM	234 nM	1.87 µM	1790 nM	8.11 µM	128 nM	1.35 µM	723 nM	4.03 µM	378 nM	1.94 µM	299 nM	1.2 µM
CCCCOc1ccc(/C=N/Nc2cc(C)nc3ccc(Br)cc23)cc1	1.73 µM	3.11 µM	1710 nM	3.11 µM	1850 nM	3.47 µM	1940 nM	3.87 µM	1610 nM	3.05 µM	1910 nM	3.59 µM	1720 nM	3.21 µM	1820 nM	3.36 µM	1700 nM	3.24 µM	1800 nM	3.27 µM
Cc1c2ccncc2c(C)c2c1sc1ccccc12	–	15.7 µM	–	27.9 µM	–	26.9 µM	–	29.7 µM	–	31 µM	–	21.6 µM	–	23.1 µM	–	26.4 µM	–	36.5 µM	–	23.8 µM
CCC(C)C1=C(O)[N+]2([O-])Oc3ccc(C4=C(O)C(=O)C(c5ccc(O)cc5)=C(O)C4=O)cc3OC2(C(C)CC)C(=O)N1O (stereo unspecified)	11.6 µM	> 100 µM	3770 nM	30.4 µM	12600 nM	> 100 µM	30900 nM	> 100 µM	5820 nM	> 100 µM	17000 nM	> 100 µM	19000 nM	> 100 µM	13900 nM	> 100 µM	> 100000 nM	> 100 µM	6250 nM	> 100 µM
O=C(c1ccc([N+](=O)[O-])cc1)C(Br)C(Br)c1ccnc2ccccc12 (stereo unspecified)	–	17 µM	–	24.6 µM	–	28.9 µM	–	24.4 µM	–	27.3 µM	–	30 µM	–	6.32 µM	–	21.1 µM	–	13.1 µM	–	4.13 µM
C#C[C@@]1(O)[C@@H](CO)O[C@@H](n2cc(C(F)(F)F)c3c(N)ncnc32)[C@@H]1O	0.831 µM	> 100 µM	2190 nM	> 100 µM	255 nM	1.27 µM	433 nM	> 100 µM	679 nM	> 25.5 µM	103 nM	> 100 µM	345 nM	1.98 µM	2180 nM	8.09 µM	1120 nM	3.42 µM	409 nM	–
CC(=O)/C(Br)=C/c1ccc(Br)o1	9.5 µM	22.2 µM	6050 nM	12.4 µM	7550 nM	20.9 µM	6190 nM	18.3 µM	4200 nM	16.1 µM	10200 nM	29.2 µM	2780 nM	8.14 µM	18700 nM	38.7 µM	10300 nM	33.3 µM	14400 nM	27.8 µM
C=C1C(=O)O[C@H]2[C@H]1CC/C(COC(=O)/C=C\C(=O)NCc1ccc(Cn3c(=O)sn(CCI)c3=O)cc1)=C\CC[C@@]1(C)O[C@@H]21	1.93 µM	3.74 µM	1660 nM	3.03 µM	2060 nM	3.69 µM	3610 nM	13.2 µM	2100 nM	5.42 µM	3170 nM	11.9 µM	1480 nM	2.93 µM	18900 nM	33.4 µM	4240 nM	18.5 µM	7630 nM	20.2 µM
COc1ccc(S(=O)(=O)Nc2c(/C=C\c3cc(OC)c(OC)c(OC)c3)ccc(OC)c2O)cc1	0.0693 µM	70.7 µM	51.6 nM	79.8 µM	406 nM	1.91 µM	42.5 nM	> 100 µM	36.6 nM	> 100 µM	54 nM	> 100 µM	20.2 nM	0.0536 µM	33.9 nM	> 100 µM	25.5 nM	88.8 µM	37.4 nM	> 100 µM
